Measurements from PubChem BioAssay (NCI).
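GI50 is the concentration that inhibits growth by half. TGI marks complete inhibition of growth.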

Legend:
Assay in all cases: inhibition of tumour cell growth, NCI panel, 384-well format
786-0 renal = test system: 786-0 renal
A498 renal = test system: A498 renal
A549 NSCLC = test system: A549 NSCLC
ACHN renal = test system: ACHN renal
BT-549 breast = test system: BT-549 breast
CAKI-1 renal = test system: CAKI-1 renal
CCRF-CEM leukemia = test system: CCRF-CEM leukemia
COLO 205 colon = test system: COLO 205 colon
DU-145 prostate = test system: DU-145 prostate
EKVX NSCLC = test system: EKVX NSCLC
HCC-2998 colon = test system: HCC-2998 colon
HCT-15 colon = test system: HCT-15 colon
HL-60(TB) leukemia = test system: HL-60(TB) leukemia
HOP-62 NSCLC = test system: HOP-62 NSCLC
HOP-92 NSCLC = test system: HOP-92 NSCLC
HS 578T breast = test system: HS 578T breast
HT29 colon = test system: HT29 colon
IGROV1 ovarian = test system: IGROV1 ovarian
K-562 leukemia = test system: K-562 leukemia
KM12 colon = test system: KM12 colon
LOX IMVI melanoma = test system: LOX IMVI melanoma
M14 melanoma = test system: M14 melanoma
MALME-3M melanoma = test system: MALME-3M melanoma
MCF7 breast = test system: MCF7 breast
MDA-MB-231 breast = test system: MDA-MB-231 breast
MDA-MB-435 melanoma = test system: MDA-MB-435 melanoma
MDA-MB-468 breast = test system: MDA-MB-468 breast
MOLT-4 leukemia = test system: MOLT-4 leukemia
NCI-H226 lung = test system: NCI-H226 lung
NCI-H23 lung = test system: NCI-H23 lung
NCI-H322M lung = test system: NCI-H322M lung
NCI-H460 NSCLC = test system: NCI-H460 NSCLC
NCI-H522 lung = test system: NCI-H522 lung
NCI/ADR-RES ovarian = test system: NCI/ADR-RES ovarian
OVCAR-3 ovarian = test system: OVCAR-3 ovarian
OVCAR-4 ovarian = test system: OVCAR-4 ovarian
OVCAR-5 ovarian = test system: OVCAR-5 ovarian
OVCAR-8 ovarian = test system: OVCAR-8 ovarian
PC-3 prostate = test system: PC-3 prostate
RPMI-8226 leukemia = test system: RPMI-8226 leukemia
RXF 393 renal = test system: RXF 393 renal
SF-268 CNS = test system: SF-268 CNS
SF-295 CNS = test system: SF-295 CNS
SF-539 CNS = test system: SF-539 CNS
SK-MEL-28 melanoma = test system: SK-MEL-28 melanoma
SK-OV-3 ovarian = test system: SK-OV-3 ovarian
SN12C renal = test system: SN12C renal
SNB-19 CNS = test system: SNB-19 CNS
SNB-75 CNS = test system: SNB-75 CNS
SR leukemia = test system: SR leukemia
SW-620 colon = test system: SW-620 colon
T-47D breast = test system: T-47D breast
TK-10 renal = test system: TK-10 renal
U251 glioblastoma = test system: U251 glioblastoma
UACC-257 melanoma = test system: UACC-257 melanoma
UACC-62 melanoma = test system: UACC-62 melanoma
UO-31 renal = test system: UO-31 renal

CCNC(=O)c1noc(-c2cc(C(C)C)c(O)cc2O)c1-c1ccc(CN2CCOCC2)cc1
GI50 ([…]-0 renal): < 10 nM
TGI (786-0 renal): 30.4 nM
GI50 (A498 renal): < 10 nM
TGI (A498 renal): 3880 nM
GI50 (A549 NSCLC): < 10 nM
TGI (A549 NSCLC): 10700 nM
GI50 (ACHN renal): < 10 nM
TGI (ACHN renal): 15500 nM
GI50 (BT-549 breast): < 10 nM
TGI (BT-549 breast): < 10 nM
GI50 (CAKI-1 renal): < 10 nM
TGI (CAKI-1 renal): 12600 nM
GI50 (CCRF-CEM leukemia): < 10 nM
TGI (CCRF-CEM leukemia): < 10 nM
GI50 (COLO 205 colon): 20.7 nM
TGI (COLO 205 colon): 157 nM
GI50 (DU-145 prostate): < 10 nM
TGI (DU-145 prostate): < 10 nM
GI50 (EKVX NSCLC): < 10 nM
TGI (EKVX NSCLC): 1030 nM
GI50 (HCC-2998 colon): < 10 nM
TGI (HCC-2998 colon): < 10 nM
GI50 (HCT-15 colon): < 10 nM
TGI (HCT-15 colon): 10400 nM
GI50 (HL-60(TB) leukemia): < 10 nM
TGI (HL-60(TB) leukemia): < 10 nM
GI50 (HOP-62 NSCLC): < 10 nM
TGI (HOP-62 NSCLC): 13.1 nM
GI50 (HOP-92 NSCLC): < 10 nM
TGI (HOP-92 NSCLC): < 10 nM
GI50 (HS 578T breast): < 10 nM
TGI (HS 578T breast): < 10 nM
GI50 (HT29 colon): 85.9 nM
TGI (HT29 colon): 10400 nM
GI50 (IGROV1 ovarian): 12.1 nM
TGI (IGROV1 ovarian): 37 nM
GI50 (K-562 leukemia): < 10 nM
TGI (K-562 leukemia): < 10 nM
GI50 (KM12 colon): < 10 nM
TGI (KM12 colon): 13 nM
GI50 (LOX IMVI melanoma): < 10 nM
TGI (LOX IMVI melanoma): < 10 nM
GI50 (M14 melanoma): < 10 nM
TGI (M14 melanoma): 11200 nM
GI50 (MALME-3M melanoma): < 10 nM
TGI (MALME-3M melanoma): < 10 nM
GI50 (MCF7 breast): < 10 nM
TGI (MCF7 breast): 11.2 nM
GI50 (MDA-MB-231 breast): < 10 nM
TGI (MDA-MB-231 breast): < 10 nM
GI50 (MDA-MB-435 melanoma): < 10 nM
TGI (MDA-MB-435 melanoma): 14900 nM
GI50 (MDA-MB-468 breast): < 10 nM
TGI (MDA-MB-468 breast): < 10 nM
GI50 (MOLT-4 leukemia): < 10 nM
TGI (MOLT-4 leukemia): < 10 nM
GI50 (NCI-H226 lung): < 10 nM
TGI (NCI-H226 lung): 11700 nM
GI50 (NCI-H23 lung): < 10 nM
TGI (NCI-H23 lung): < 10 nM
GI50 (NCI-H322M lung): < 10 nM
TGI (NCI-H322M lung): 12200 nM
GI50 (NCI-H460 NSCLC): < 10 nM
TGI (NCI-H460 NSCLC): < 10 nM
GI50 (NCI-H522 lung): < 10 nM
TGI (NCI-H522 lung): 23.6 nM
GI50 (NCI/ADR-RES ovarian): 66.9 nM
TGI (NCI/ADR-RES ovarian): 269 nM
GI50 (OVCAR-3 ovarian): < 10 nM
TGI (OVCAR-3 ovarian): < 10 nM
GI50 (OVCAR-4 ovarian): < 10 nM
TGI (OVCAR-4 ovarian): < 10 nM
GI50 (OVCAR-5 ovarian): 16.9 nM
TGI (OVCAR-5 ovarian): 76.1 nM
GI50 (OVCAR-8 ovarian): < 10 nM
TGI (OVCAR-8 ovarian): < 10 nM
GI50 (PC-3 prostate): < 10 nM
TGI (PC-3 prostate): 29.6 nM
GI50 (RPMI-8226 leukemia): < 10 nM
TGI (RPMI-8226 leukemia): < 10 nM
GI50 (RXF 393 renal): < 10 nM
TGI (RXF 393 renal): < 10 nM
GI50 (SF-268 CNS): < 10 nM
TGI (SF-268 CNS): 10700 nM
GI50 (SF-295 CNS): 24.7 nM
TGI (SF-295 CNS): 115 nM
GI50 (SF-539 CNS): < 10 nM
TGI (SF-539 CNS): < 10 nM
GI50 (SK-MEL-28 melanoma): < 10 nM
TGI (SK-MEL-28 melanoma): 42.8 nM
GI50 (SK-OV-3 ovarian): < 10 nM
TGI (SK-OV-3 ovarian): 11000 nM
GI50 (SN12C renal): < 10 nM
TGI (SN12C renal): 28 nM
GI50 (SNB-19 CNS): 13.1 nM
TGI (SNB-19 CNS): 63.7 nM
GI50 (SNB-75 CNS): < 10 nM
TGI (SNB-75 CNS): < 10 nM
GI50 (SR leukemia): < 10 nM
TGI (SR leukemia): < 10 nM
GI50 (SW-620 colon): < 10 nM
TGI (SW-620 colon): < 10 nM
GI50 (T-47D breast): < 10 nM
TGI (T-47D breast): 44.8 nM
GI50 (TK-10 renal): 24.4 nM
TGI (TK-10 renal): 81 nM
GI50 (U251 glioblastoma): < 10 nM
TGI (U251 glioblastoma): 29.7 nM
GI50 (UACC-257 melanoma): < 10 nM
TGI (UACC-257 melanoma): 420 nM
GI50 (UACC-62 melanoma): < 10 nM
TGI (UACC-62 melanoma): < 10 nM
GI50 (UO-31 renal): 49.4 nM
TGI (UO-31 renal): > 100000 nM
